Source: ChEMBL document CHEMBL3217545, “Synthesis and study of 2-acetyl amino-3-[4-(2-amino-5-sulfo-phenylazo)-phenyl]-propionic acid: a new class of inhibitor for hen egg white lysozyme amyloidogenesis” (Medchemcomm, 2013)
Active and inactive are the calls of the source. The rule behind the calls is not given here.

What was measured:
[1] = target: Lysozyme C (Gallus gallus) (UniProt P00698); assay: Inhibition of hen egg white lysozyme fibrillization at 2 x 10^-4 M after 15 days by congo red dye-based crossed polarized optical microscopic analysis
[2] = target: Lysozyme C (Gallus gallus) (UniProt P00698); assay: Inhibition of hen egg white lysozyme fibrillization at 2 x 10^-4 M up to 100 hrs by Thioflavin T-based fluorescence assay
[3] = target: Lysozyme C (Gallus gallus) (UniProt P00698); assay: Inhibition of hen egg white lysozyme fibrillization assessed as diameter of granular aggregate at 2 x 10^-4 M after 15 days by atomic force microscopic analysis (reference value: 50 to 80 nm)
[4] = target: Lysozyme C (Gallus gallus) (UniProt P00698); assay: Inhibition of beta-sheet aggregation of hen egg white lysozyme at 2 x 10^-4 M after 15 days by CD spectroscopic analysis
[5] = target: Lysozyme C (Gallus gallus) (UniProt P00698); assay: Binding affinity to hen egg white lysozyme at 2 x 10^-4 M by fluorescence spectroscopic analysis
[6] = Cytotoxicity against neuronal cells (unknown origin) by MTT assay; assay type: cell-based; conditions: neuron
[7] = target: Lysozyme C (Gallus gallus) (UniProt P00698); assay: Inhibition of beta-sheet aggregation of hen egg white lysozyme at 2 x 10^-4 M after 15 days by FT-IR spectroscopic analysis
[8] = target: Lysozyme C (Gallus gallus) (UniProt P00698); assay: Binding affinity to hen egg white lysozyme at 2 x 10^-4 M by UV/Vis spectroscopic analysis
[9] = target: Lysozyme C (Gallus gallus) (UniProt P00698); assay: Inhibition of hen egg white lysozyme fibrillization at 2 x 10^-4 M after 2 weeks by congo red dye-based UV/Vis spectroscopic analysis
[10] = target: Lysozyme C (Gallus gallus) (UniProt P00698); assay: Binding affinity to hen egg white lysozyme assessed as formation of enzyme/compound complex formation at 2 x 10^-4 M by TCSPC spectroscopic analysis

Chain of Lysozyme C (Gallus gallus) (P00698 whole entry): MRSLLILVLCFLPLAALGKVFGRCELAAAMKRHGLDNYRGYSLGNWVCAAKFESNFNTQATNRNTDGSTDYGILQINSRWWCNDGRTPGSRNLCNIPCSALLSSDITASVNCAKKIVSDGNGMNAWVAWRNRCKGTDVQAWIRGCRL

Structure (SMILES) | inhibition [1] | inhibition [2] | Activity [3] [nm] | inhibition [4] | Activity [5] | Activity [6] | inhibition [7] | Activity [8] | inhibition [9] | Activity [10]
Nc1ccc(S(=O)(=O)O)cc1/N=N/c1ccc(C[C@H](NC(=O)C(F)(F)F)C(=O)O)cc1 | Active | Active | 100 | Active | Active | Non-toxic | Active | Active | Active | Active
CC(=O)N[C@@H](Cc1ccc(/N=N/c2cc(S(=O)(=O)O)ccc2N)cc1)C(=O)O | Active | Active | 100 | Active | Active | Non-toxic | Active | Active | Active | Active
